From patent publication US12077503B2, “Substituted cyclic amides and their use as herbicides” (FMC CORPORATION, priority 2015, dated 2024)

How the values were obtained:
Format in all cases: in vivo
[1] = system: barnyardgrass (Echinochloa crus-galli); assay: Test G Pre-Emergence Protocol; conditions: Echinochloa crus-galli, pre-emergence, 312 h, evaluated after 13 days
Summary of the method: (§1)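 Under a 24/16° C day/night regime with 14 h light and 65% humidity, sown pots were sprayed after one day with compound (15.625, 62.5 or 250 g/ha; 50:50 acetone/water, 0.5% Tween 20). Damage was assessed visually 13 days later, 0 to 100.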

corn (Zea mays) [2] = assay: Test G Pre-Emergence Protocol; conditions: Zea mays, pre-emergence, 312 h, evaluated after 13 days
Summary of the method: as §1

[3] = system: giant foxtail (Setaria faberi); assay: Test G Pre-Emergence Protocol; conditions: Setaria faberi, pre-emergence, 312 h, evaluated after 13 days
Summary of the method: as §1

[4] = system: ivy-leaved morning glory (Ipomoea hederacea); assay: Test G Pre-Emergence Protocol; conditions: Ipomoea, pre-emergence, 312 h, evaluated after 13 days
Summary of the method: as §1

[5] = system: redroot pigweed (Amaranthus retroflexus); assay: Test G Pre-Emergence Protocol; conditions: Amaranthus retroflexus, pre-emergence, 312 h, evaluated after 13 days
Summary of the method: as §1

[6] = system: velvetleaf (Abutilon theophrasti); assay: Test G Pre-Emergence Protocol; conditions: Abutilon theophrasti, pre-emergence, 312 h, evaluated after 13 days
Summary of the method: as §1

[7] = system: barnyardgrass (Echinochloa crus-galli); assay: Test G Post-Emergence Protocol; conditions: Echinochloa crus-galli, post-emergence, 312 h, read-out: Barnyardgrass damage rating
Summary of the method: (§2)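 Post-emergence herbicidal damage, scored visually 0–100 at 13 days. Application at 15.625, 62.5 or 250 g/ha onto 8-day-old plants grown under glasshouse control.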

corn (Zea mays) [8] = assay: Test G Post-Emergence Protocol; conditions: Zea mays, post-emergence, 312 h, read-out: Corn damage rating
Summary of the method: as §2

[9] = system: giant foxtail (Setaria faberi); assay: Test G Post-Emergence Protocol; conditions: Setaria faberi, post-emergence, 312 h, read-out: Foxtail, Giant damage rating
Summary of the method: as §2

[10] = system: ivy-leaved morning glory (Ipomoea hederacea); assay: Test G Post-Emergence Protocol; conditions: Ipomoea, post-emergence, 312 h, read-out: Morningglory, Ivy-leaved damage rating
Summary of the method: as §2

[11] = system: redroot pigweed (Amaranthus retroflexus); assay: Test G Post-Emergence Protocol; conditions: Amaranthus retroflexus, post-emergence, 312 h, read-out: Pigweed, Redroot damage rating
Summary of the method: as §2

[12] = system: velvetleaf (Abutilon theophrasti); assay: Test G Post-Emergence Protocol; conditions: Abutilon theophrasti, post-emergence, 312 h, read-out: Velvetleaf damage rating
Summary of the method: as §2

[13] = 15.625 g ai/ha, evaluated after 13 days (100=total damage to plant; 0=no damage to plant)
[14] = 62.5 g ai/ha, evaluated after 13 days, 100=total damage to plant, 0=no damage to plant
[15] = 250 g ai/ha, evaluated after 13 days, 100=total damage to plant, 0=no damage to plant

`CN1C[C@H](c2ccc(C(F)(F)F)cc2)[C@@H](C(=O)Nc2cc(C#N)ccn2)C1=O` (racemic) [Compound 1734] gave a pest or weed control at 15.625 g/ha ([1]; 15.625 g ai/ha, read-out: Barnyardgrass damage rating (100=total damage to plant; 0=no damage to plant)) of 0%, a pest or weed control at 62.5 g/ha ([1]; 62.5 g ai/ha, 100=total damage to plant, 0=no damage to plant, read-out: Barnyardgrass damage rating) of 0% and a pest or weed control at 250 g/ha ([1]; 250 g ai/ha, read-out: Barnyardgrass damage rating (100=total damage to plant; 0=no damage to plant)) of 0%. It also gave a plant injury at 15.625 g/ha (corn (Zea mays) [2]; 15.625 g ai/ha, read-out: Corn damage rating (100=total damage to plant; 0=no damage to plant)) of 0%, a plant injury at 62.5 g/ha (corn (Zea mays) [2]; 62.5 g ai/ha, 100=total damage to plant, 0=no damage to plant, read-out: Corn damage rating) of 0% and a plant injury at 250 g/ha (corn (Zea mays) [2]; 250 g ai/ha, read-out: Corn damage rating (100=total damage to plant; 0=no damage to plant)) of 0%. For the same molecule, the pest or weed control at 15.625 g/ha ([3]; 15.625 g ai/ha, read-out: Foxtail, Giant damage rating (100=total damage to plant; 0=no damage to plant)) was 0%, the pest or weed control at 62.5 g/ha ([3]; 62.5 g ai/ha, 100=total damage to plant, 0=no damage to plant, read-out: Foxtail, Giant damage rating) was 0% and the pest or weed control at 250 g/ha ([3]; 250 g ai/ha, read-out: Foxtail, Giant damage rating (100=total damage to plant; 0=no damage to plant)) was 10%. The pest or weed control at 15.625 g/ha ([4]; 15.625 g ai/ha, read-out: Morningglory, Ivy-leaved damage rating (100=total damage to plant; 0=no damage to plant)) was 0%, the pest or weed control at 62.5 g/ha ([4]; 62.5 g ai/ha, 100=total damage to plant, 0=no damage to plant, read-out: Morningglory, Ivy-leaved damage rating) was 0% and the pest or weed control at 250 g/ha ([4]; 250 g ai/ha, read-out: Morningglory, Ivy-leaved damage rating (100=total damage to plant; 0=no damage to plant)) was 0%. For the same molecule, the pest or weed control at 15.625 g/ha ([5]; 15.625 g ai/ha, read-out: Pigweed, Redroot damage rating (100=total damage to plant; 0=no damage to plant)) was 0%, the pest or weed control at 62.5 g/ha ([5]; 62.5 g ai/ha, 100=total damage to plant, 0=no damage to plant, read-out: Pigweed, Redroot damage rating) was 0% and the pest or weed control at 250 g/ha ([5]; 250 g ai/ha, read-out: Pigweed, Redroot damage rating (100=total damage to plant; 0=no damage to plant)) was 0%. For the same molecule, the pest or weed control at 15.625 g/ha ([6]; 15.625 g ai/ha, read-out: Velvetleaf damage rating (100=total damage to plant; 0=no damage to plant)) was 0%, the pest or weed control at 62.5 g/ha ([6]; 62.5 g ai/ha, 100=total damage to plant, 0=no damage to plant, read-out: Velvetleaf damage rating) was 0% and the pest or weed control at 250 g/ha ([6]; 250 g ai/ha, read-out: Velvetleaf damage rating (100=total damage to plant; 0=no damage to plant)) was 0%. It also gave a pest or weed control at 15.625 g/ha [7, 13] of 0%, a pest or weed control at 62.5 g/ha [7, 14] of 0% and a pest or weed control at 250 g/ha [7, 15] of 0%. The plant injury at 15.625 g/ha (corn (Zea mays) [8]; [13]) was 0%, the plant injury at 62.5 g/ha (corn (Zea mays) [8]; [14]) was 0% and the plant injury at 250 g/ha (corn (Zea mays) [8]; [15]) was 0%. It also gave a pest or weed control at 15.625 g/ha [9, 13] of 0%, a pest or weed control at 62.5 g/ha [9, 14] of 0% and a pest or weed control at 250 g/ha [9, 15] of 0%. The pest or weed control at 15.625 g/ha [10, 13] was 0%, the pest or weed control at 62.5 g/ha [10, 14] was 0% and the pest or weed control at 250 g/ha [10, 15] was 0%. The pest or weed control at 15.625 g/ha [11, 13] was 0%, the pest or weed control at 62.5 g/ha [11, 14] was 0% and the pest or weed control at 250 g/ha [11, 15] was 0%. The pest or weed control at 15.625 g/ha [12, 13] was 0%, the pest or weed control at 62.5 g/ha [12, 14] was 0% and the pest or weed control at 250 g/ha [12, 15] was 0%.
